In paper PMC12823391 (Nature, 2025):

Legend:
[1] = biological target: T1, MBP–NLRX1 (87–975 amino acids) (Homo sapiens, UniProt Q86UT6); test: competition of AcCoA with biotin-AcCoA pull-down, immunoblot; type: binding; conditions: unlabelled AcCoA as competitor
[2] = biological target: endogenous NLRX1 (HeLa cell lysate) (Homo sapiens, UniProt Q86UT6); test: cellular thermal shift assay on lysate, immunoblot; type: biochemical; conditions: 500 µM AcCoA, 44.6-65 °C, 3 min
[3] = biological target: T1, MBP–NLRX1 (87–975 amino acids); test: biotin-CoASH pull-down and competition with CoASH, immunoblot; type: binding; conditions: labelled compound; unlabelled CoASH as competitor
[4] = biological target: T1, MBP–NLRX1 (87–975 amino acids); test: biotin-acyl-CoA pull-down, immunoblot; type: binding; conditions: labelled compound (biotin conjugate)

T1 sequence (Q86UT6 87-975): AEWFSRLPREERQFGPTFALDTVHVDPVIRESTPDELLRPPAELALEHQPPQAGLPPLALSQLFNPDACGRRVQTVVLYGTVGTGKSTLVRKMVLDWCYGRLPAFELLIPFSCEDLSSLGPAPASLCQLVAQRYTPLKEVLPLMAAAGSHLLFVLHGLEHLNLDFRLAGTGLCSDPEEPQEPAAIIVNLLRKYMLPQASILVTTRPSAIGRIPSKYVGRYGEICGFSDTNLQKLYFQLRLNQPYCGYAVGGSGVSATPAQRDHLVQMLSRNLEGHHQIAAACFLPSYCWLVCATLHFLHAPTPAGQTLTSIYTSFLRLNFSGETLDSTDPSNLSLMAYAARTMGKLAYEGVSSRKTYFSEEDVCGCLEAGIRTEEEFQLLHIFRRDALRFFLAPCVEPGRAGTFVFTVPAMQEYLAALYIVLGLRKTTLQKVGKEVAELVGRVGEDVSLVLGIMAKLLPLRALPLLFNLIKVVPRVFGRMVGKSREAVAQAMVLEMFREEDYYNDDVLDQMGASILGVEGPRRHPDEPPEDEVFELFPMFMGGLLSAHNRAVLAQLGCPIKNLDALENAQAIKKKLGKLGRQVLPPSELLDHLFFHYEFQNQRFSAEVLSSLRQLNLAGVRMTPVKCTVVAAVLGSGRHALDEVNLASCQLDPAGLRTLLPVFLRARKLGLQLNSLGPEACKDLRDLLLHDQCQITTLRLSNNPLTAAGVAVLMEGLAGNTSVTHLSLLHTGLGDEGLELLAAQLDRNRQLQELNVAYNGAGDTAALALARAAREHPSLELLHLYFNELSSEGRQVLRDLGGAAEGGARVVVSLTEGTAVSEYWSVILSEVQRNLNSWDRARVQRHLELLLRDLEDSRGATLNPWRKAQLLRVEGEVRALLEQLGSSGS
endogenous NLRX1 (HeLa cell lysate), sequence (Q86UT6 87-975): as above

In the case of `CC(=O)SCCNC(=O)CCNC(=O)[C@H](O)C(C)(C)COP(=O)(O)OP(=O)(O)OC[C@H]1O[C@@H](n2cnc3c(N)ncnc32)[C@H](O)[C@@H]1OP(=O)(O)O` [AcCoA], the “competition of AcCoA with biotin-AcCoA pull-down, immunoblot” value [1] is reported as “increasing concentrations of AcCoA competed with biotin–AcCoA for NLRX1 binding” and the thermal shift [2] is reported as “AcCoA addition substantially increased the stability of NLRX1 protein level compared with CoASH”.
For `CC(C)(COP(=O)(O)OP(=O)(O)OC[C@H]1O[C@@H](n2cnc3c(N)ncnc32)[C@H](O)[C@@H]1OP(=O)(O)O)[C@@H](O)C(=O)NCCC(=O)NCCS` [CoASH], the “biotin-CoASH pull-down and competition with CoASH, immunoblot” value [3] was “CoASH was associated with recombinant NLRX1 to a lesser extent than AcCoA was”.
With `CC(C)(COP(=O)(O)OP(=O)(O)OC[C@H]1O[C@@H](n2cnc3c(N)ncnc32)[C@H](O)[C@@H]1OP(=O)(O)O)[C@@H](O)C(=O)NCCC(=O)NCCSC(=O)CC(=O)O` [malonyl-CoA] the “biotin-acyl-CoA pull-down, immunoblot” value [4] was “no interaction between recombinant NLRX1 and malonyl-CoA or succinyl-CoA was detected”.
In the case of `CC(C)(COP(=O)(O)OP(=O)(O)OC[C@H]1O[C@@H](n2cnc3c(N)ncnc32)[C@H](O)[C@@H]1OP(=O)(O)O)[C@@H](O)C(=O)NCCC(=O)NCCSC(=O)CCC(=O)O` [succinyl-CoA], the “biotin-acyl-CoA pull-down, immunoblot” value [4] is reported as “no interaction between recombinant NLRX1 and malonyl-CoA or succinyl-CoA was detected”.
